Earlier results, collected in US6959708B1, “Method for co-application of gases and drugs to potentiate their action in relieving headaches, angina and other ailments” (Capnia, Incorporated, priority 1999, dated 2005).
Read-outs that look alike come from different tables or passages of the source.

Legend:
[1] = system: central and peripheral airways; settings: asthmatic adults
[2] = system: serotonin-induced bronchial smooth muscle contraction
[3] = system: pulmonary hypertension; settings: in vivo
[4] = system: transpulmonary gradient and pulmonary vascular resistance; settings: inhaled low dose
[5] = co-application of a 10% CO2 concentration
[6] = drug alone, without CO2 co-application

Row | Compound | inhibition of serotonin-induced bronchial smooth muscle contraction [2, 5] [%] | inhibition of serotonin-induced bronchial smooth muscle contraction [2, 6] [%] | further results
1 | O=C=O [CO2, carbon dioxide] | – | – | effect on airways [1]: relax both central and peripheral airways
2 | CN1[C@@H]2CC[C@H]1C[C@@H](OC(=O)C(CO)c1ccccc1)C2 (some centres unmarked) [atropine] | 62 | 46 | –
3 | C[N+](C)(C)CCCCCC[N+](C)(C)C [hexamethonium] | 67 | 37 | –
4 | nitric oxide [NO] | – | – | effect on pulmonary hypertension [3]: reverse pulmonary hypertension; pulmonary vasoselectivity [4]: highly pulmonary vasoselective; reduction of transpulmonary gradient and pulmonary vascular resistance compared with sodium nitroprusside and prostacyclin ([4]; in vivo and clinical tests): as effective as sodium nitroprusside and prostacyclin
